Among the data in ChEMBL document CHEMBL1121600, “Inhibitors of phenylethanolamine N-methyltransferase and epinephrine biosynthesis. 2. 1,2,3,4-Tetrahydroisoquinoline-7-sulfonanilides” (J Med Chem, 1980) are Ratio and Epinephrine level values, retold here.

Common to all, as to format: organism-based
For test [1], the target named is T1, Phenylethanolamine N-methyltransferase (Homo sapiens) (UniProt P11086).
T1 sequence (whole entry): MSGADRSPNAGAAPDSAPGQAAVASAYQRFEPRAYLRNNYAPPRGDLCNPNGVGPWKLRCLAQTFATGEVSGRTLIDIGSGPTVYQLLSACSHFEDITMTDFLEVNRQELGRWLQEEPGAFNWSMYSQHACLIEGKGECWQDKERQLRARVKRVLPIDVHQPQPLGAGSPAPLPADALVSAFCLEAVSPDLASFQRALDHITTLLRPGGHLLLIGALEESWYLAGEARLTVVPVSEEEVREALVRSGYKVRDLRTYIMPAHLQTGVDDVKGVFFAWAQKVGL
The experiment in a line: Epinephrine to norepinephrine ratio at 100 mg/kg dose. The arrangement: dose 100 mg/kg. The settings on record: Oryctolagus cuniculus.

The target of test [2] is T2, Phenylethanolamine N-methyltransferase (Mus musculus) (UniProt P40935).
T2 sequence (whole entry): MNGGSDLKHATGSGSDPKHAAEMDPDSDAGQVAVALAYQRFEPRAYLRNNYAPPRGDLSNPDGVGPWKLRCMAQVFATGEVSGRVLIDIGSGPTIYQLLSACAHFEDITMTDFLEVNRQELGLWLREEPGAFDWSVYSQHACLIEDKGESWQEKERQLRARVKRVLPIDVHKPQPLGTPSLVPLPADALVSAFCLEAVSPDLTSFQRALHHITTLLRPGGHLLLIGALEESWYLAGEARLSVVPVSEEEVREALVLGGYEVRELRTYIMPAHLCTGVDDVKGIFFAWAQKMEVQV
The test is described as follows: Phenylethanolamine N-Methyltransferase inhibition assay in a 7-day mouse study was determined by epinephrine level at 100 mg/kg dose. The arrangement: dose 100 mg/kg.

Test [3] concerns the target T2, Phenylethanolamine N-methyltransferase (Mus musculus). The test is described as follows: Phenylethanolamine N-Methyltransferase inhibition assay in a 7-day mouse study was determined by epinephrine level at 25 mg/kg dose. More on the design: dose 25 mg/kg.
The target is the same in test [4]. The test is described as follows: Phenylethanolamine N-Methyltransferase inhibition assay in a 7-day mouse study was determined by epinephrine level at 50 mg/kg dose. The arrangement: dose 50 mg/kg.

Take `O=S(=O)(Nc1ccc(Br)cc1)c1ccc2c(c1)CNCC2`: the Ratio in test [1] was 2.1. For the same compound, in test [2], the Epinephrine level turned out to be 7.
Consider `O=S(=O)(Nc1ccc(Cl)cc1)c1ccc2c(c1)CNCC2`, for which the Epinephrine level in test [3] turned out to be 8.
For `NS(=O)(=O)c1ccc2c(c1)CNCC2`, the Epinephrine level in test [3] worked out at 6.7; in test [2] it was 5.8; in test [4] it was 5.9.
